Measured values: patent publication US7348425B2, “Inhibitors of HCV replication” (Bristol-Myers Squibb Company, priority 2004, dated 2008)

Each molecule was assayed against T1, HCV NS5B RdRp genotype 1b (Hepatitis C virus genotype 1b, UniProt Q9WMX2) (assay: Modified HCV NS5B RdRp enzyme assay (with preincubation)). Conditions: modified method (with preincubation).
T1 construct: The protein was expressed with an 18 amino acid C-terminal truncation to enhance the solubility; made in house; host or cells: E. coli BL21 (DE3), pET21a
Assay type: biochemical
Method: HCVNS5B RdRp cloning, expression, and purification. The cDNA encoding the NS5B protein of HCV, genotype 1b, was cloned into the pET21a expression vector. The protein was expressed with an 18 amino acid C-terminal truncation to enhance the solubility. The E. coli competent cell line BL21 (DE3) was used for expression of the protein. Cultures were grown at 37° C. for ˜4 hours until the cultures reached an optical density of 2.0 at 600 nm. The cultures were cooled to 20° C. and induced with 1 mM IPTG. Fresh ampicillin was added to a final concentration of 50 μg/ml and the cells were grown overnight at 20° C.
Cell pellets (3 L) were lysed for purification to yield 15-24 mgs of purified NS5B. The lysis buffer consisted of 20 mM Tris-HCl, pH 7.4, 500 mM NaCl, 0.5% triton X-100, 1 mM DTT, 1 mM EDTA, 20% glycerol, 0.5 mg/ml lysozyme, 10 mM MgCl2, 15 ug/ml deoxyribonuclease I, and Complete TM protease inhibitor tablets (Roche). After addition of the lysis buffer, frozen cell pellets were resuspended using a tissue homogenizer. To reduce the viscosity of the sample, aliquots of the lysate were sonicated on ice using a microtip attached to a Branson sonicator. The sonicated lysate was centrifuged at 100,000×g for 1 hr at 4° C. and filtered through a 0.2 μm filter unit (Corning).
The protein was purified using three sequential chromatography steps: Heparin sepharose CL-6B, polyU sepharose 4B, and Hitrap SP sepharose (Pharmacia). The chromatography buffers were identical to the lysis buffer but contained no lysozyme, deoxyribonuclease I, MgCl2 or protease inhibitor and the NaCl concentration of the buffer was adjusted according to the requirements for charging the protein onto the column. Each column was eluted with a NaCl gradient which varied in length from 5-50 column volumes depending on the column type. After the final chromatography step, the resulting purity of the enzyme is >90% based on SDS-PAGE analysis. The enzyme was aliquoted and stored at −80° C.
Standard HCV NS5B RdRp enzyme assay. HCV RdRp genotype Ib assays were run in a final volume of 60 μl in 96 well plates (Costar 3912). The assay buffer is composed of 20 mM Hepes, pH 7.5, 2.5 mM KCl, 2.5 mM MgCl2, 1 mM DTT, 1.6 U RNAse inhibitor (Promega N2515), 0.1 mg/ml BSA (Promega R3961), and 2% glycerol. All compounds were serially diluted (3-fold) in DMSO and diluted further in water such that the final concentration of DMSO in the assay was 2%. HCV RdRp genotype 1b enzyme was used at a final concentration of 28 nM. A polyA template was used at 6 nM, and a biotinylated oligo-dT12 primer was used at 180 nM final concentration. Template was obtained commercially (Amersham 27-4110). Biotinylated primer was prepared by Sigma Genosys. ^3H-UTP was used at 0.6 μCi (0.29 μM total UTP). Reactions were initiated by the addition of enzyme, incubated at 30° C. for 60 min, and stopped by adding 25 μl of 50 mM EDTA containing SPA beads (4 μg/μl, Amersham RPNQ 0007). Plates were read on a Packard Top Count NXT after >1 hr incubation at room temperature.
Modified HCV NS5B RdRp enzyme assay. A modified enzyme assay was performed essentially as described for the standard enzyme assay except for the following: The biotinylated oligo dT12 primer was precaptured on streptavidin-coated SPA beads by mixing primer and beads in assay buffer and incubating at room temperature for one hour. Unbound primer was removed after centrifugation. The primer-bound beads were resuspended in 20 mM Hepes buffer, pH 7.5 and used in the assay at final concentrations of 20 nM primer and 0.67 μg/μl beads. Order of addition in the assay: enzyme (14 nM) was added to diluted compound followed by the addition of a mixture of template (0.2 nM), ^3H-UTP (0.6 μCi, 0.29 μM), and primer-bound beads, to initiate the reaction; concentrations given are final. Reactions were allowed to proceed for 4 hours at 30° C.
The IC50 values for compounds were determined using seven different [I]. […]

T1 sequence (Q9WMX2 2420-2992): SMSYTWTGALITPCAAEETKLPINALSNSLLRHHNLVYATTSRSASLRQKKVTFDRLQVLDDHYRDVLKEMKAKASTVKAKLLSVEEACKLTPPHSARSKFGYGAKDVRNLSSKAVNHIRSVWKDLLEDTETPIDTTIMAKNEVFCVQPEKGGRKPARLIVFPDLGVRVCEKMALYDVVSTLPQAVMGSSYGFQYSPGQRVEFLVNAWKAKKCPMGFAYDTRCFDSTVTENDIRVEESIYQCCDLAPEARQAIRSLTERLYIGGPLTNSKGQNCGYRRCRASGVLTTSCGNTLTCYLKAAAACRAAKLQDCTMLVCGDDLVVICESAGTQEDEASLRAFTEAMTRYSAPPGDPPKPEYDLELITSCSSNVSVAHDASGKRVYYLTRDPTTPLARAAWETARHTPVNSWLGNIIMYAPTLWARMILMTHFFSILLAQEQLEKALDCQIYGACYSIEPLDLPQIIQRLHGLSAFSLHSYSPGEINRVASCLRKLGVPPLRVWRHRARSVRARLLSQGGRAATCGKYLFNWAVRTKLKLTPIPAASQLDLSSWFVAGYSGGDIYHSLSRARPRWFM

SMILES	IC50
Cn1c(C(=O)O)cc2cc(NC(=O)C3(NC(=O)c4ccc5c(C6CCCCC6)c6n(c5c4)CC(=O)Nc4ccccc4-6)CCCC3)ccc21	20 to 1000 nM
COC(=O)c1ccc2c(C3CCCCC3)c3n(c2c1)CC(C(=O)N1CCOCC1)=Cc1ccc(Cl)cc1-3	> 1000 nM
O=C(NS(=O)(=O)C1CC1)c1ccc2c(C3CCCCC3)c3n(c2c1)CC(C(=O)N1CCOCC1)Cc1ccccc1-3 (centres unmarked) [drawing 288]	20 to 1000 nM
O=C(NS(=O)(=O)C1CC1)c1ccc2c(C3CCCCC3)c3n(c2c1)CC(C(=O)N1CCOCC1)Cc1ccccc1-3 (centres unmarked) [drawing 289]	20 to 1000 nM
COC(=O)c1ccc2c(C3CCCCC3)c3n(c2c1)CC(C(=O)OCc1ccccc1)=Cc1ccccc1-3 [drawing 322]	> 1000 nM
CS(=O)(=O)NC(=O)c1ccc2c(C3CCCCC3)c3n(c2c1)CC(C(=O)N1CCOCC1)Cc1ccccc1-3 (centres unmarked) [drawing 348]	20 to 1000 nM
CS(=O)(=O)NC(=O)c1ccc2c(C3CCCCC3)c3n(c2c1)CC(C(=O)N1CCOCC1)Cc1ccccc1-3 (centres unmarked) [drawing 349]	20 to 1000 nM

Same assay, conditions: preincubation protocol

SMILES	IC50
COC(=O)c1ccc2c(C3CCCCC3)c3n(c2c1)C(O)c1cc(N(C)C)ccc1-3 (centres unmarked)	> 4000 nM
COC(=O)C1=Cc2occc2-c2c(C3CCCCC3)c3ccc(C(=O)OC)cc3n2C1	> 12500 nM
COC(=O)c1ccc2c(C3CCCCC3)c3n(c2c1)CC(C(=O)O)=Cc1occc1-3	1000 to 10000 nM
COC(=O)c1ccc2c(C3CCCCC3)c3n(c2c1)CC(C(=O)NCC=O)=Cc1cc(OC)ccc1-3	10 to 1000 nM
COC(=O)C1=Cc2cc(N(C)C)ccc2-c2c(C3CCCCC3)c3ccc(C(=O)OC)cc3n2C1	> 12500 nM
COC(=O)c1ccc2c(C3CCCCC3)c3n(c2c1)CC(C(=O)N1CCOCC1)=Cc1occc1-3	> 4000 nM
COC(=O)c1ccc2c(C3CCCCC3)c3n(c2c1)CC(C(=O)N1C[C@@H](C)O[C@@H](C)C1)=Cc1occc1-3	> 4000 nM

These molecules were tested on HCV replicon (assay: HCV replicon FRET assay). Conditions: Hepatitis C virus; FRET assay; read-out: EC50.
Assay type: cell-based
Method: The IC50 values for compounds were determined using seven different [I]. IC50 values were calculated from the inhibition using the formula y=A+((B−A)/(1+((C/x)^D))). FRET Assay Preparation. To perform the HCV FRET screening assay, 96-well cell culture plates were used. The FRET peptide (Anaspec, Inc.) (Taliani et al., Anal. Biochem. 240:60-67 (1996), hereby incorporated by reference in its entirety) contains a fluorescence donor, EDANS, near one end of the peptide and an acceptor, DABCYL, near the other end. The fluorescence of the peptide is quenched by […] resonance energy transfer (RET) between the donor and the acceptor, but as the NS3 protease cleaves the peptide the products are released from RET quenching and the fluorescence of the donor becomes apparent. The assay reagent was made as follows: 5× cell Luciferase cell culture lysis reagent from Promega (#E153A) diluted to 1× with dH2O, NaCl added to 150 mM final, the FRET peptide diluted to 20 uM final from a 2 mM stock.
To prepare plates, HCV replicon cells, with or without a Renilla luciferase reporter gene, were trypsinized and placed into each well of a 96-well plate with titrated test compounds added in columns 3 through 12; columns 1 and 2 contained a control compound (HCV protease inhibitor), and the bottom row contained cells without compound. The plates were then placed in a CO2 incubator at 37 degrees C.
Assays. Subsequent to addition of the test compounds described above (FRET Assay Preparation), at various times the plate was removed and Alamar blue solution (Trek Diagnostics, #00-100) was added per well as a measure of cellular toxicity. After reading in a Cytoflour 4000 instrument (PE Biosystems), plates were rinsed with PBS and then used for FRET assay by the addition of 30 ul of the FRET peptide assay reagent described above (FRET Assay Preparation) per well. The plate was then placed into the Cytoflour 4000 instrument which had been set to 340 excite/490 emission, automatic mode for 20 cycles and the plate read in a kinetic mode. Typically, the signal to noise using an endpoint analysis after the reads was at least three-fold. Alternatively, after Alamar blue reading, plates were rinsed with PBS, 50 ul of DMEM (high glucose) without phenol red was added and plates were then used for luciferase assay using the Promega Dual-Glo Luciferase Assay System.
Compound analysis was determined by quantification of the relative HCV replicon inhibition and the relative cytotoxicity values. To calculate cytoxicity values, the average Alamar Blue fluorescence signals from the control wells were set as 100% non-toxic. The individual signals in each of the compound test wells were then divided by the average control signal and multiplied by 100% to determine […]. To calculate the HCV replicon inhibition values, an average background value was obtained from the two wells containing the highest amount of HCV protease inhibitor at the end of the assay period. These numbers were similar to those obtained from naïve Huh-7 cells.
The background numbers were then subtracted from the average signal obtained from the control wells and this number was used as 100% activity. The individual signals in each of the compound test wells were then divided by the averaged control values after background subtraction and multiplied by 100% to determine percent activity. EC50 values for a protease inhibitor titration were calculated as the concentration which caused a 50% reduction in FRET or luciferase activity. The two numbers generated for the compound plate, percent cytoxicity and percent activity were used to determine compounds of interest for further analysis.

SMILES	EC50
O=C(O)c1ccc2c(C3CCCCC3)c3n(c2c1)C/C=C\COc1ccccc1-3	1000 to 10000 nM
COC(=O)/C=C/c1ccc(NC(=O)C2(NC(=O)c3ccc4c(C5CCCCC5)c5n(c4c3)CCCn3ccnc3-5)CCCC2)cc1	1000 to 10000 nM
CC(C)(C)OC(=O)N1CCCCn2c(c(C3CCCCC3)c3ccc(C(=O)NC4(C(=O)Nc5ccc(/C=C/C(=O)O)cc5)CCCC4)cc32)-c2ccccc21	1000 to 10000 nM
O=C(NC1(C(=O)O)CCCC1)c1ccc2c(C3CCCCC3)c3n(c2c1)CCCCNc1ccccc1-3	1000 to 10000 nM
COC(=O)/C=C/c1ccc(NC(=O)C2(NC(=O)c3ccc4c(C5CCCCC5)c5n(c4c3)CCCc3nc[nH]c3-5)CCCC2)cc1	1000 to 10000 nM
O=C(O)/C=C/c1ccc(NC(=O)C2(NC(=O)c3ccc4c(C5CCCCC5)c5n(c4c3)CCCc3nc[nH]c3-5)CCCC2)cc1	1000 to 10000 nM
O=C(O)c1ccc2c(C3CCCCC3)c3n(c2c1)CCCc1nc[nH]c1-3	> 10000 nM
CN1C(=O)Cn2c(c(C3CCCCC3)c3ccc(C(=O)NS(=O)(=O)N(C)C)cc32)-c2ccccc21	10 to 1000 nM
O=C(O)c1ccc(-c2cnc(NC(=O)C3(NC(=O)c4ccc5c(C6CCCCC6)c6n(c5c4)CC=Cc4ccccc4-6)CCCC3)s2)cc1	10 to 1000 nM
O=C(NC1(C(=O)Nc2nccs2)CCCC1)c1ccc2c(C3CCCCC3)c3n(c2c1)CC=Cc1ccccc1-3	10 to 1000 nM
O=C(NC1(C(=O)O)CCNCC1)c1ccc2c(C3CCCCC3)c3n(c2c1)CC=Cc1ccccc1-3	1000 to 10000 nM
O=C(O)c1ccc2c(C3CCCCC3)c3n(c2c1)CCCc1nccnc1-3	1000 to 10000 nM
O=C(O)c1ccc2c(C3CCCCC3)c3n(c2c1)CCNc1ccccc1-3	1000 to 10000 nM
COC(=O)/C=C/c1ccc(NC(=O)C2(NC(=O)c3ccc4c(C5CCCCC5)c5n(c4c3)CCCc3nccnc3-5)CCCC2)cc1	1000 to 10000 nM
COC(=O)/C=C/c1ccc(NC(=O)C2(NC(=O)c3ccc4c(C5CCCCC5)c5n(c4c3)CC(C(=O)NCCN(C)C)=Cc3ccccc3-5)CCCC2)cc1	10 to 1000 nM
COC(=O)/C=C/c1ccc(NC(=O)C2(NC(=O)c3ccc4c(C5CCCCC5)c5n(c4c3)CC(=O)N(C)c3ccccc3-5)CCCC2)cc1	10 to 1000 nM
Cn1c(C(=O)O)cc2cc(NC(=O)C3(NC(=O)c4ccc5c(C6CCCCC6)c6n(c5c4)CC(=O)Nc4ccccc4-6)CCCC3)ccc21	10 to 1000 nM
CCOC(=O)/C=C/c1ccc(NC(=O)C2(NC(=O)c3ccc4c(C5CCCCC5)c5n(c4c3)CCN(C(=O)OC(C)(C)C)c3ccccc3-5)CCCC2)cc1	10 to 1000 nM
CCOC(=O)/C=C/c1ccc(NC(=O)C2(NC(=O)c3ccc4c(C5CCCCC5)c5n(c4c3)CCNc3ccccc3-5)CCCC2)cc1	10 to 1000 nM
O=C(O)c1ccc2c(C3CCCCC3)c3n(c2c1)C(=O)NCc1ccccc1-3	> 10000 nM
CN1Cc2ccccc2-c2c(C3CCCCC3)c3ccc(C(=O)O)cc3n2C1=O	> 10000 nM
CC1=C(C(=O)N2CCOCC2)Cn2c(c(C3CCCCC3)c3ccc(C(=O)NS(=O)(=O)N(C)C)cc32)-c2ccccc21	10 to 1000 nM
COC(=O)c1ccc2c(C3CCCCC3)c3n(c2c1)CC(C(=O)N1C[C@@H](C)O[C@@H](C)C1)=Cc1c(OC)cccc1-3	> 3300 nM
COc1cc2c(cn1)-c1c(C3CCCCC3)c3ccc(C(=O)O)cc3n1CC(C(=O)N1C[C@@H](C)O[C@@H](C)C1)=C2	1000 to 10000 nM
